Reference: PMC9619929, “Conditional Antimicrobial Peptide Therapeutics” (ACS Nano, 2022)

Tests used:
Toxicity evaluation = type: in vivo, mouse
Method: ABD-AMP conjugates at different doses were intravenously administered to CD-1 mice. The mice were closely monitored for 24 h before euthanization unless significant morbidity was observed that necessitated early euthanization. Blood samples were drawn via cardiac puncture and dispensed into serum separator tubes (BD Microtainer). The samples were left to clot for at least 30 min and spun at 15 000 rcf for 1.5 min to separate serum. The serum samples were frozen in a −20 °C freezer and submitted for serum chemistry analysis by MIT Diagnostic Laboratory (MIT Division of Comparative Medicine). Serum levels of pro-inflammatory cytokine IL-6 and TNF-α were quantified using ELISA MAX standard sets (BioLegend, CA, U.S.A.) following the manufacturer’s protocol. Organs were harvested, fixed in 10% formalin at RT for 24 h, sectioned into 5 μm slices, and stained with H&E for analysis. The slides were evaluated by a veterinary pathologist blind to the treatment groups and were digitized using a Pannoramic digital slide scanner at 20× magnification.

Pharmacokinetics study = type: in vivo, mouse; conditions: 15 nmol IV, CD-1 mice, blood, n = 4
Method: ABD-AMP-Cy7 conjugates (15 nmol) were intravenously administered to CD-1 mice. At different time intervals, blood samples (5 μL) were collected via saphenous vein bleeding using heparin-coated capillary tubes. Blood samples were diluted 10-fold in PBS supplemented with Halt protease inhibitor cocktail and EDTA and centrifuged to remove cells. The supernatants were used to quantify conjugate concentration via SDS-PAGE analysis.

[1] = mouse, in vivo, iv
Method: All animal studies were approved by the Massachusetts Institute of Technology’s Committee on Animal Care (MIT protocol 0619-034-22). CD-1 mice (11–12 weeks old) were rendered neutropenic by intraperitoneal injections of cyclophosphamide at 4 d (150 mg/kg) and 1 d (100 mg/kg) prior to infection. PAO1 inoculation was performed by intratracheal instillation of PAO1 suspension (2 × 10^5 cfu in 50 μL PBS) via a 22G blunt-end catheter (EXCEL International). For BALF collection, the mice were first euthanized. An incision into the trachea was made with a needle puncture where lavage was performed with PBS (1 mL) via a catheter-fitted syringe. BALFs were centrifuged to remove cells, aliquoted, and stored in a −20 °C freezer.
ABD-AMP-Cy7 conjugates (15 nmol) were intravenously administered at 6 h post infection. The mice were euthanized 2 h after and organs were harvested for imaging with an Odyssey CLx imager. After imaging, organs were homogenized in PBS supplemented with Halt protease inhibitor cocktail (ThermoFisher Scientific, MA, U.S.A.) using a gentleMAC dissociator (Miltenyi Biotec, CA, U.S.A.). The homogenates were pelleted and the supernatants were used for SDS-PAGE analysis.

Molecule	Signs of distress over the observation period (Toxicity evaluation; 10 mg/kg (AMP eq) IV, 24 h)	Histology evaluation of organs (H&E) (Toxicity evaluation; 10 mg/kg (AMP eq) IV, 24 h, blinded veterinary pathologist, n = 3)	Mice that did not survive to the study end point (Toxicity evaluation; 10 mg/kg IV, 24 h)	Serum pro-inflammatory cytokine IL-6 (Toxicity evaluation; 10 mg/kg IV, ELISA)	Serum levels of ALT, AST, BUN and creatinine (Toxicity evaluation; IV, 5 and 10 mg/kg AMP eq, 24 h, (D)Pex result at 10 mg/kg, n = 3–5)	Maximum tolerated dose (MTD) (Toxicity evaluation; IV, CD-1 mice, monitored 24 h)	AUC (Pharmacokinetics study; SDS-PAGE Cy7 quantification)	t1/2,α (Pharmacokinetics study)	t1/2,β (Pharmacokinetics study)	AUC ((D)Pex-Cy7), kidneys [1]	AUC ((D)Pex-Cy7), liver [1]	AUC ((D)Pex-Cy7), lungs [1]	AUC ((D)Pex-Cy7), spleen [1]
CC[C@@H](C)[C@@H](NC(=O)CN)C(=O)NCC(=O)N[C@H](CCCCN)C(=O)N[C@H](Cc1ccccc1)C(=O)N[C@H](CC(C)C)C(=O)N[C@H](CCCCN)C(=O)N[C@H](CCCCN)C(=O)N[C@H](C)C(=O)N[C@H](CCCCN)C(=O)N[C@H](CCCCN)C(=O)N[C@H](Cc1ccccc1)C(=O)NCC(=O)N[C@H](CCCCN)C(=O)N[C@H](C)C(=O)N[C@H](Cc1ccccc1)C(=O)N[C@@H](C(=O)N[C@H](CCCCN)C(=O)N[C@@H](C(=O)N[C@H](CC(C)C)C(=O)N[C@H](CCCCN)C(=O)N[C@H](CCCCN)C(N)=O)[C@H](C)CC)C(C)C [(D)Pex]	signs of distress	Pathological damage was observed in kidneys and spleen	3 of 5	significantly elevated	elevated beyond a normal reference range	5 mg/kg							
Azidoacetyl–GiGkflkkakkfGkafvkilkk–K(Cy7)–CONH2 [(D)Pex-Cy7, free unconjugated Cy7-labelled (D)Pex control]							2.08 µM·h	35.3 min	35.6 min	14.1 % ID*h/g	112 % ID*h/g	5.29 % ID*h/g	23.5 % ID*h/g
